Experimental data: patent US11116213B2, “Herbicidal composition comprising cinmethylin and pethoxamid” (BASF Agro B.V., priority 2015, dated 2021)

Key:
Format in all cases: in vivo
Avena fatua = test: Greenhouse pre-emergence herbicidal activity on AVEFA; conditions: 20 DAT; for herbicidal activity (%): herbicide A solo
Description: (§1) The test plants have been seeded, separately for each species, in plastic containers in sandy loamy soil containing 5% of organic matter.
(§2) The containers were irrigated gently to promote germination and growth and subsequently covered with transparent plastic hoods until the plants had rooted.
(§3) The plants have been cultivated due to their individual requirements at 10-25° C. and 20-35° C.
(§4) The plants were irrigated due to their necessity.
(§5) The racemic mixture (±)-2-exo-(2-Methylbenzyloxy)-1-methyl-4-isopropyl-7-oxabicyclo[2.2.1]heptane was used as herbicide A and formulated as an emulsifiable concentrate with an active ingredient concentration of 750 g/l.
(§6) Pethoxamid (herbicide B) was used as an emulsifiable concentrate formulation having an active ingredient concentration of 600 g/l.
(§7) In the following experiments, the herbicidal activity for the individual herbicidal compositions (solo and mixture applications) was assessed 20 days after treatment (DAT).
(§8) The evaluation for the damage on undesired weeds caused by the chemical compositions was carried out using a scale from 0 to 100%, compared to the untreated control plants. Here, 0 means no damage and 100 means complete destruction of the plants.
(§9) E=X+Y−(X·Y/100) where • X=effect in percent using herbicide A at an application rate a; • Y=effect in percent using herbicide B at application rate b; • E=expected effect (in %) of herbicide A+herbicide B at application rates a+b.
(§10) The value E corresponds to the effect (plant damage or injury) which is to be expected if the activity of the individual compounds is additive.
(§11) Table 1 below relates to the herbicidal activity, in greenhouse trials, of the individual actives and the combinations applied at different rates and ratios, in pre-emergence application at 20 days after treatment (DAT).

Polygonum convolvulus = test: Greenhouse pre-emergence herbicidal activity on POLCO; conditions: 20 DAT; for herbicidal activity (%): herbicide A solo
Description: as §1, §2, §3, §4, §5, §6, §7, §8, §9, §10, §11

Setaria viridis = test: Greenhouse pre-emergence herbicidal activity on SETVI; conditions: 20 DAT
Description: as §1, §2, §3, §4, §5, §6, §7
(§12) The evaluation for the damage on undesired weeds caused by the chemical compositions was carried out using a scale from 0 to 100%, compared to the untreated control plants. Here, 0 means no damage and 100 means complete destruction of the plants. […]

Lolium multiflorum = test: Greenhouse pre-emergence herbicidal activity on LOLMU; conditions: 20 DAT
Description: as §1, §2, §3, §4, §5, §6, §7, §12

Anthemis arvensis = test: Greenhouse pre-emergence herbicidal activity on ANTAR; conditions: 20 DAT; for herbicidal activity (%): herbicide A solo
Description: as §1, §2, §3, §4, §5, §6, §7, §8, §9, §10, §11

Sorghum halepense = test: Greenhouse pre-emergence herbicidal activity on SORHA; conditions: 20 DAT
Description: as §1, §2, §3, §4, §5, §6, §7, §12

Alopecurus myosuroides = test: Greenhouse pre-emergence herbicidal activity on ALOMY; conditions: 20 DAT
Description: as §1, §2, §3, §4, §5, §6, §7, §12

Brassica napus = test: Greenhouse pre-emergence herbicidal activity on BRSNW; conditions: 20 DAT
Description: as §1, §2, §3, §4, §5, §6, §7, §12

Abutilon theophrasti = test: Greenhouse pre-emergence herbicidal activity on ABUTH; conditions: 20 DAT
Description: as §1, §2, §3, §4, §5, §6, §7, §12

Chenopodium album = test: Greenhouse pre-emergence herbicidal activity on CHEAL; conditions: 20 DAT
Description: as §1, §2, §3, §4, §5, §6, §7, §12

[1] = herbicide A solo, 31.25 g ai/ha

CCOCCN(C(=O)CCl)C(=C(C)C)c1ccccc1 [pethoxamid, 2-chloro-N-(2-ethoxyethyl)-N-(2-methyl-1-phenylprop-1-enyl)acetamide]
inhibition at 125 g/ha (Avena fatua; Avena fatua, 480 h, pethoxamid solo, 125 g ai/ha): 40% | inhibition at 250 g/ha (Avena fatua; Avena fatua, 480 h, pethoxamid solo, 250 g ai/ha): 40% | inhibition at 500 g/ha (Avena fatua; Avena fatua, 480 h, pethoxamid solo, 500 g ai/ha): 50% | inhibition at 125 g/ha (Polygonum convolvulus; Fallopia convolvulus, 480 h, pethoxamid solo, 125 g ai/ha): 15% | inhibition at 250 g/ha (Polygonum convolvulus; Fallopia convolvulus, 480 h, pethoxamid solo, 250 g ai/ha): 15% | inhibition at 500 g/ha (Polygonum convolvulus; Fallopia convolvulus, 480 h, pethoxamid solo, 500 g ai/ha): 30% | inhibition at 62.5 g/ha (Setaria viridis; Setaria viridis, 480 h, pethoxamid solo, 62.5 g ai/ha): 80% | inhibition at 62.5 g/ha (Lolium multiflorum; Lolium multiflorum, 480 h, pethoxamid solo, 62.5 g ai/ha): 50% | inhibition at 62.5 g/ha (Anthemis arvensis; Anthemis arvensis, 480 h, pethoxamid solo, 62.5 g ai/ha): 20% | inhibition at 125 g/ha (Anthemis arvensis; Anthemis arvensis, 480 h, pethoxamid solo, 125 g ai/ha): 60% | inhibition at 125 g/ha (Sorghum halepense; Sorghum halepense, 480 h, pethoxamid solo, 125 g ai/ha): 85% | inhibition at 125 g/ha (Alopecurus myosuroides; Alopecurus myosuroides, 480 h, pethoxamid solo, 125 g ai/ha): 35% | inhibition at 500 g/ha (Brassica napus; Brassica napus, 480 h, pethoxamid solo, 500 g ai/ha): 0% | inhibition at 62.5 g/ha (Abutilon theophrasti; Abutilon theophrasti, 480 h, pethoxamid solo, 62.5 g ai/ha): 20% | inhibition at 62.5 g/ha (Chenopodium album; Chenopodium album, 480 h, pethoxamid solo, 62.5 g ai/ha): 40%

(±)-2-exo-(2-Methylbenzyloxy)-1-methyl-4-isopropyl-7-oxabicyclo[2.2.1]heptane [herbicide A]
herbicidal activity (%) (Avena fatua; 62.5 g ai/ha): 0% | herbicidal activity (%) (Avena fatua; 125 g ai/ha): 25% | herbicidal activity (%) (Avena fatua; 250 g ai/ha): 35% | herbicidal activity (%) (Polygonum convolvulus; 62.5 g ai/ha): 0% | herbicidal activity (%) (Polygonum convolvulus; 125 g ai/ha): 0% | herbicidal activity (%) (Polygonum convolvulus; 250 g ai/ha): 15% | herbicidal activity (%) (Setaria viridis; [1]): 90% | herbicidal activity (%) (Lolium multiflorum; [1]): 60% | herbicidal activity (%) (Anthemis arvensis; 31.25 g ai/ha): 0% | herbicidal activity (%) (Anthemis arvensis; 62.5 g ai/ha): 0% | herbicidal activity (%) (Sorghum halepense; herbicide A solo, 62.5 g ai/ha): 80% | herbicidal activity (%) (Alopecurus myosuroides; herbicide A solo, 62.5 g ai/ha): 98% | herbicidal activity (%) (Brassica napus; herbicide A solo, 250 g ai/ha): 0% | herbicidal activity (%) (Abutilon theophrasti; [1]): 30% | herbicidal activity (%) (Chenopodium album; [1]): 40%
